Test results published in patent publication US12324802B2, “Modulators of cystic fibrosis transmembrane conductance regulator” (Vertex Pharmaceuticals Incorporated, priority 2020, dated 2025).

Target: T1, CFTR (F508del/MF-HBE cells) (Homo sapiens, UniProt P13569, DEL508-508)
T1 construct: human bronchial epithelial (HBE) cells derived from CF subjects heterozygous for F508del and a minimal function CFTR mutation; endogenous in cells; host or cells: primary human bronchial epithelial cells from CF subjects (F508del/MF genotype)
Assay: Ussing chamber assay of CFTR-mediated short-circuit currents (identification of potentiator compounds)
Assay type: cell-based
Conditions: CFTR-mediated ISC in F508del/MF-HBE cells; incubated 18-24 hours at 37° C. with 10 μM (14S)-8-[3-(2-{dispiro[2.0.2.1]heptan-7-yl}ethoxy)-1H-pyrazol-1-yl]-...-2,2,4-trione, 20% human serum
Protocol: Ussing Chamber Assay of CFTR-Mediated Short-Circuit Currents
Ussing chamber experiments were performed using human bronchial epithelial (HBE) cells derived from CF subjects heterozygous for F508del and a minimal function CFTR mutation (F508del/MF-HBE) and cultured as previously described (Neuberger T, Burton B, Clark H, Van Goor F Methods Mol Biol 2011:741:39-54). After four days the apical media was removed, and the cells were grown at an air liquid interface for >14 days prior to use.
To isolate the CFTR-mediated short-circuit (ISC) current, F508del/MF-HBE grown on Costar® Snapwell™ cell culture inserts were mounted in an Ussing chamber and the transepithelial ISC was measured under voltage-clamp recording conditions (Vhold=0 mV) at 37° C. The basolateral solution contained (in mM) 145 NaCl, 0.83 K2HPO4, 3.3 KH2PO4, 1.2 MgCl2, 1.2 CaCl2), 10 Glucose, 10 HEPES (pH adjusted to 7.4 with NaOH) and the apical solution contained (in mM) 145 NaGluconate, 1.2 MgCl2, 1.2 CaCl2), 10 glucose, 10 HEPES (pH adjusted to 7.4 with NaOH) and 30 μM amiloride to block the epithelial sodium channel. Forskolin (20 μM) was added to the apical surface to activate CFTR, followed by apical addition of a CFTR inhibitor cocktail consisting of BPO, GlyH-101 and CFTR inhibitor 172 (each at 20 μM final assay concentration) to specifically isolate CFTR currents. The CFTR-mediated ISC (μA/cm^2) for each condition was determined from the peak forskolin response to the steady-state current following inhibition.
Identification of Potentiator Compounds
The activity of the CFTR potentiator compounds on the CFTR-mediated ISC was determined in Ussing chamber studies as described above. The F508del/MF-HBE cell cultures were incubated with the potentiator compounds at a range of concentrations in combination with 10 μM (14S)-8-[3-(2-{dispiro[2.0.2.1]heptan-7-yl}ethoxy)-1H-pyrazol-1-yl]-12,12-dimethyl-2λ^6-thia-3,9,11,18,23-pentaazatetracyclo [17.3.1.111,14.05,10]tetracosa-1(22),5,7,9,19(23),20-hexaene-2,2,4-trione for 18-24 hours at 37° C. and in the presence of 20% human serum. The concentration of potentiator compounds and (14S)-8-[3-(2-{dispiro[2.0.2.1]heptan-7-yl}ethoxy)-1H-pyrazol-1-yl]-12,12-dimethyl-2λ^6-thia-3,9,11,18,23-pentaazatetracyclo [17.3.1.111,14.05,10]tetracosa-1(22),5,7,9,19(23),20-hexaene-2,2,4-trione used during the 18-24 hours incubations was kept constant throughout the Ussing chamber measurement of the CFTR-mediated ISC to ensure compounds were present throughout the entire experiment. The efficacy and potency of the putative F508del potentiators was compared to that of the known Vertex potentiator, ivacaftor (N-[2,4-bis(1,1-dimethylethyl)-5-hydroxyphenyl]-1,4-dihydro-4-oxoquinoline-3-carboxamide).

T1 sequence (P13569 with tags, fused parts or gaps DEL508-508): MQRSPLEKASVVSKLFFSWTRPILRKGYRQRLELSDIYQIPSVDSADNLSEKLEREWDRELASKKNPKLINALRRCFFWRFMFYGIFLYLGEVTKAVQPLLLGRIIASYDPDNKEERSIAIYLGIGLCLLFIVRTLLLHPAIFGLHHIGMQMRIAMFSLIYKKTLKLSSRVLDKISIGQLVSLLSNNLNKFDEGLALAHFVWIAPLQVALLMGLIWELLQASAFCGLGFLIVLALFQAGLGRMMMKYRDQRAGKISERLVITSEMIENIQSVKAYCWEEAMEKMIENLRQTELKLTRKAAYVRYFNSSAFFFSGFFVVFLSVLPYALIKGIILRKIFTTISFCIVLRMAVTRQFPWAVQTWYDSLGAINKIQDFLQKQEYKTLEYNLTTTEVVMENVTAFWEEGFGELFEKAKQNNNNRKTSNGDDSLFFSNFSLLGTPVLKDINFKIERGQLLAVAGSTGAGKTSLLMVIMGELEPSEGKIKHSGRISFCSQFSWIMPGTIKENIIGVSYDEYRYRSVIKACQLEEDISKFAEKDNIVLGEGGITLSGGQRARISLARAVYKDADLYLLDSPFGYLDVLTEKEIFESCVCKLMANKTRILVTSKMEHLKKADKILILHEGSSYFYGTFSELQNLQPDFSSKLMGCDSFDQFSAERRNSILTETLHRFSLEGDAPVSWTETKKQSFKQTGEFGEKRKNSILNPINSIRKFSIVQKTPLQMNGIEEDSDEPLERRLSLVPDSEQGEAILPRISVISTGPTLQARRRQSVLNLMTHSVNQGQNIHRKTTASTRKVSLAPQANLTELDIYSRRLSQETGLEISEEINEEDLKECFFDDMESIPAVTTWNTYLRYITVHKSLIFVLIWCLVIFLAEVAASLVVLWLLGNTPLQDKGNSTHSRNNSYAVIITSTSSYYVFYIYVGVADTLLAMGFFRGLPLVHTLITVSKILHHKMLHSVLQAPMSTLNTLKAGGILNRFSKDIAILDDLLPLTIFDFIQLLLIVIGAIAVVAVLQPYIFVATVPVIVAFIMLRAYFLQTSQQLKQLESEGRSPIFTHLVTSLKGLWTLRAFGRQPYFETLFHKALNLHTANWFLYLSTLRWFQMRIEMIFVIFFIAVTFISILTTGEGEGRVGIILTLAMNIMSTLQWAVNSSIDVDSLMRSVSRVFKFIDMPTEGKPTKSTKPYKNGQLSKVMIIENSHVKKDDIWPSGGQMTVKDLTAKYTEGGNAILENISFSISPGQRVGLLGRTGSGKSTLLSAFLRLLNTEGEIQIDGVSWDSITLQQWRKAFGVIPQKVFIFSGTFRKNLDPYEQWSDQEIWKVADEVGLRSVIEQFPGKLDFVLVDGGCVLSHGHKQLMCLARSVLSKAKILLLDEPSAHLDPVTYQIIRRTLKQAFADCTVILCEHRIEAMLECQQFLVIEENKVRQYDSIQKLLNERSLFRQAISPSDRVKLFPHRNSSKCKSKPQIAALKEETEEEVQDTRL

Question: For `Nc1cc(Br)c2nc1-c1nnc(o1)C(O)(C(F)(F)F)CCCCC[C@@H]1CCCN21` (stereo partly drawn) [Compound 144, (12R)-20-amino-18-bromo-6-(trifluoromethyl)-22-oxa-3,4,16,21-tetraazatetracyclo[15.3.1.12,5.012,16]docosa-1(21),2,4,17,19-pentaen-6-ol], which EC50 is on record?
Answer: Its EC50 is less than 500 nM.

Question: `CC1(CO)CCCCC[C@](O)(C(F)(F)F)C2=NN=C(O2)c2nc(c(C(F)(F)F)cc2N)N1` (single isomer, unassigned) [Compound 174] was tested. Which EC50 did it give?
Answer: The EC50 was less than 500 nM.

Question: With `Nc1cc(C(F)(F)F)c2nc1-c1nnc(o1)C(O)(C(F)(F)F)CCCCCC1CCS(=O)(=O)N21` (single isomer, unassigned) [Compound 110, 20-amino-6-hydroxy-6,18-bis(trifluoromethyl)-22-oxa-15λ6-thia-3,4,16,21-tetraazatetracyclo[15.3.1.12,5.012,16]docosa-1(21),2,4,17,19-pentaene-15,15-dione] as the compound, how does the EC50 read?
Answer: The EC50 was less than 500 nM.

Question: How did the EC50 turn out when `Nc1cc(C(F)(F)F)c2nc1-c1nnc(o1)C(O)(C(F)(F)F)CCCOC[C@@H]1CCCN21` (single isomer, unassigned) [Compound 167] was run?
Answer: The EC50 was less than 500 nM.

Question: With `Nc1cc(C(F)(F)F)c2nc1-c1nnc(o1)C(O)(C(F)(F)F)c1cccc(n1)CCC[C@@H]1CCCN21` (single isomer, unassigned) [Compound 82] as the compound, how does the EC50 read?
Answer: Its EC50 is less than 500 nM.

Question: Which EC50 does the source give for `Nc1cc(C(F)(F)F)c2nc1-c1nnc(o1)-c1c(O)cccc1CCCC[C@@H]1CCCN21` [Compound 134, (16R)-24-amino-22-(trifluoromethyl)-26-oxa-3,4,20,25-tetraazapentacyclo[19.3.1.12,5.06,11.016,20]hexacosa-1(25),2,4,6(11),7,9,21,23-octaen-7-ol] here?
Answer: The EC50 was greater than 1000 nM.

Question: `Nc1cc(C(F)(F)F)c2nc1-c1nnc(o1)[C@@](O)(C(F)(F)F)CCCCCC(c1ncco1)N2` (single isomer, unassigned) [Compound 184] was tested. Which EC50 did it give?
Answer: The EC50 was less than 500 nM.

Question: Which EC50 does the source give for `Nc1cc(S(=O)(=O)c2ccc(OC(F)(F)F)cc2)c2nc1-c1nnc(o1)C(O)(C(F)(F)F)CCCCC[C@@H]1CCCN21` (single isomer, unassigned) [Compound 152] here?
Answer: The EC50 was less than 500 nM.

Question: How did the EC50 turn out when `Nc1cc(C(F)(F)F)c2nc1-c1nnc(o1)C(O)(C(F)(F)F)CCCCCC(=O)N2` (single isomer, unassigned) [Compound 109, 17-amino-6-hydroxy-6,15-bis(trifluoromethyl)-19-oxa-3,4,13,18-tetrazatricyclo[12.3.1.12,5]nonadeca-1(18),2,4,14,16-pentaen-12-one] was run?
Answer: The EC50 was greater than 1000 nM.

Question: How did the EC50 turn out when `CC1(C)CCCOCC(O)(C(F)(F)F)C2=NN=C(O2)c2nc(c(C(F)(F)F)cc2N)N1` (single isomer, unassigned) [Compound 197, 17-amino-12,12-dimethyl-6,15-bis(trifluoromethyl)-8,19-dioxa-3,4,13,18-tetrazatricyclo[12.3.1.12,5]nonadeca-1(18),2,4,14,16-pentaen-6-ol] was run?
Answer: The EC50 was less than 500 nM.

Question: Which EC50 does the source give for `Nc1cc(C(F)(F)F)c2nc1-c1nnc(o1)C(O)(C(F)(F)F)CCCCCC(CO)N2` (single isomer, unassigned) [Compound 102, 17-amino-12-(hydroxymethyl)-6,15-bis(trifluoromethyl)-19-oxa-3,4,13,18-tetrazatricyclo[12.3.1.12,5]nonadeca-1(18),2,4,14,16-pentaen-6-ol] here?
Answer: Its EC50 is less than 500 nM.

Question: With `CN1CCCCCCC(O)(C(F)(F)F)C2=NN=C(O2)c2nc1c(C(F)(F)F)cc2N` (single isomer, unassigned) [Compound 19, 17-amino-13-methyl-6,15-bis(trifluoromethyl)-19-oxa-3,4,13,18-tetrazatricyclo[12.3.1.12,5]nonadeca-1(18),2,4,14,16-pentaen-6-ol] as the compound, how does the EC50 read?
Answer: The EC50 was less than 500 nM.

Question: For `COC(=O)c1cc(N)c2nc1N1CCC[C@H]1CCCCCC(O)(C(F)(F)F)C1=NN=C2O1` (single isomer, unassigned) [Compound 169], which EC50 is on record?
Answer: Its EC50 is greater than 1000 nM.

Question: For `Nc1cc(C(F)(F)F)c2nc1-c1nnc(o1)C(O)CCCCC[C@@H]1CCCN21` (single isomer, unassigned) [Compound 21], which EC50 is on record?
Answer: Its EC50 is less than 500 nM.

Question: For `Nc1cc(C(F)(F)F)c2nc1-c1nnc(o1)C(O)(C(F)(F)F)CCCCC1CCCN21` (centres unmarked) [Compound 18, 19-amino-6,17-bis(trifluoromethyl)-21-oxa-3,4,15,20-tetraazatetracyclo[14.3.1.12,5.011,15]henicosa-1(20),2,4,16,18-pentaen-6-ol], which EC50 is on record?
Answer: Its EC50 is less than 500 nM.

Question: `Nc1cc(C(F)(F)F)c2nc1-c1nnc(o1)C(O)(CO)CCCCC[C@@H]1CCCN21` (single isomer, unassigned) [Compound 100] was tested. Which EC50 did it give?
Answer: Its EC50 is 500 to 1000 nM.

Question: How did the EC50 turn out when `Nc1cc(C(F)(F)F)c2nc1-c1nnc(o1)C(O)(C(F)(F)F)CCCCCC1CCS(=O)(=O)N21` (single isomer, unassigned) [Compound 113, 20-amino-6-hydroxy-6,18-bis(trifluoromethyl)-22-oxa-15λ6-thia-3,4,16,21-tetraazatetracyclo[15.3.1.12,5.012,16]docosa-1(21),2,4,17,19-pentaene-15,15-dione] was run?
Answer: Its EC50 is greater than 1000 nM.

Question: For `COc1ccc2cc1C(O)(C(F)(F)F)C1=NN=C(O1)c1nc(c(C(F)(F)F)cc1N)N1CCC[C@H]1CCC2` (single isomer, unassigned) [Compound 92], which EC50 is on record?
Answer: The EC50 was greater than 1000 nM.

Question: For `CC1(C)CCCCC(O)C(O)(C(F)(F)F)C2=NN=C(O2)c2nc(c(C(F)(F)F)cc2N)N1` (single isomer, unassigned) [Compound 195, 17-amino-12,12-dimethyl-6,15-bis(trifluoromethyl)-19-oxa-3,4,13,18-tetrazatricyclo[12.3.1.12,5]nonadeca-1(18),2,4,14,16-pentaene-6,7-diol], which EC50 is on record?
Answer: The EC50 was greater than 1000 nM.

Question: `Nc1cc(S(=O)(=O)c2ccc(OC(F)(F)F)cc2)c2nc1-c1nnc(o1)C(O)(C(F)(F)F)CCCCC[C@@H]1CCCN21` (single isomer, unassigned) [Compound 153] was tested. Which EC50 did it give?
Answer: The EC50 was greater than 1000 nM.

Question: For `Nc1cc(C(F)(F)F)c2nc1-c1nnc(o1)C(O)(C(F)(F)F)CCCCC1CCN2C1` (centres unmarked) [Compound 9, 16-amino-10,18-bis(trifluoromethyl)-20-oxa-2,12,13,19-tetraazatetracyclo[13.3.1.12,5.111,14]henicosa-1(19),11,13,15,17-pentaen-10-ol], which EC50 is on record?
Answer: Its EC50 is less than 500 nM.

Question: Which EC50 does the source give for `CS(=O)(=O)c1cc(N)c2nc1N1CCC[C@H]1CCCCCC(O)(C(F)(F)F)C1=NN=C2O1` (single isomer, unassigned) [Compound 161] here?
Answer: The EC50 was less than 500 nM.

Question: How did the EC50 turn out when `Nc1cc(C(F)(F)F)c2nc1-c1nnc(o1)[C@@](O)(C(F)(F)F)CCCCCC(c1ncccn1)N2` (single isomer, unassigned) [Compound 201] was run?
Answer: The EC50 was less than 500 nM.

Question: How did the EC50 turn out when `CN(C)C(=O)C1CCCCCC(O)(C(F)(F)F)C2=NN=C(O2)c2nc(c(C(F)(F)F)cc2N)N1` (single isomer, unassigned) [Compound 148, 17-amino-6-hydroxy-N,N-dimethyl-6,15-bis(trifluoromethyl)-19-oxa-3,4,13,18-tetrazatricyclo[12.3.1.12,5]nonadeca-1(18),2,4,14,16-pentaene-12-carboxamide] was run?
Answer: Its EC50 is less than 500 nM.

Question: Which EC50 does the source give for `Nc1cc(C(F)(F)F)c2nc1-c1nnc(o1)C(O)(C(F)(F)F)CCCCC1CCN2C1` (centres unmarked) [Compound 8, 16-amino-10,18-bis(trifluoromethyl)-20-oxa-2,12,13,19-tetraazatetracyclo[13.3.1.12,5.111,14]henicosa-1(19),11,13,15,17-pentaen-10-ol] here?
Answer: The EC50 was less than 500 nM.

Question: `CC1(CO)CCCCC[C@](O)(C(F)(F)F)C2=NN=C(O2)c2nc(c(C(F)(F)F)cc2N)N1` (single isomer, unassigned) [Compound 175] was tested. Which EC50 did it give?
Answer: The EC50 was less than 500 nM.
